Measurements taken from ChEMBL document CHEMBL4828735, “Discovery of N-((3S,4S)-4-(3,4-Difluorophenyl)piperidin-3-yl)-2-fluoro-4-(1-methyl-1H-pyrazol-5-yl)benzamide (Hu7691), a Potent and Selective Akt Inhibitor That Enables Decrease of Cutaneous Toxicity” (J Med Chem, 2021).
pIC50: −log10 of the molar value.

What was measured:
[1] = biological target: RAC-alpha serine/threonine-protein kinase (Homo sapiens, UniProt P31749); assay: Inhibition of N-terminal GST-tagged human AKT1 (104 to 408 residues) expressed in baculovirus infected Sf21 cells incubated for 1 hr in presence of ATP by mobility shift assay
Chain of RAC-alpha serine/threonine-protein kinase (P31749 whole entry, the tested form may be a part): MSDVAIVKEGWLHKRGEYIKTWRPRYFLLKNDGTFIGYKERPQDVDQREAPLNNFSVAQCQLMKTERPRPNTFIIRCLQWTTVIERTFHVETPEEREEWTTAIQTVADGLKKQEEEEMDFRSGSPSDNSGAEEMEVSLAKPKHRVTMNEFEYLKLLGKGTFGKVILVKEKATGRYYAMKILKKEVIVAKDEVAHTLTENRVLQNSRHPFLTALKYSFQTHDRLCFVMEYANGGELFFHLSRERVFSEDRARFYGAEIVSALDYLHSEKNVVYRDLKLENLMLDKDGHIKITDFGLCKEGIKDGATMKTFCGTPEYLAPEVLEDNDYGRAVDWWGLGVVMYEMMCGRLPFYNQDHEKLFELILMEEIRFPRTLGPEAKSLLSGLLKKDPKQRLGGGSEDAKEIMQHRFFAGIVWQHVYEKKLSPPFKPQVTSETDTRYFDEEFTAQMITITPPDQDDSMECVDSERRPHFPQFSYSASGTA

HGC-27 = assay: Antiproliferative activity against human HGC-27 cells assessed as inhibition of cell growth incubated for 72 hrs by SRB assay; type: functional, cell-based; conditions: HGC-27, 72 h
786-0 = assay: Antiproliferative activity against human 786-0 cells assessed as inhibition of cell growth incubated for 72 hrs by SRB assay; type: functional, cell-based; conditions: 786-0, 72 h
KHOS/NP = assay: Antiproliferative activity against human KHOS cells assessed as inhibition of cell growth incubated for 72 hrs by SRB assay; type: functional, cell-based
hERG (KCNH2) = hERG (KCNH2) (Homo sapiens, UniProt Q12809); assay: Inhibition of human ERG expressed in HEK293 cells at 3 uM by whole cell patch clamp method relative to control; type: cell-based; conditions: HEK293 cells expressing hERG
Chain of hERG (KCNH2) (Q12809 whole entry): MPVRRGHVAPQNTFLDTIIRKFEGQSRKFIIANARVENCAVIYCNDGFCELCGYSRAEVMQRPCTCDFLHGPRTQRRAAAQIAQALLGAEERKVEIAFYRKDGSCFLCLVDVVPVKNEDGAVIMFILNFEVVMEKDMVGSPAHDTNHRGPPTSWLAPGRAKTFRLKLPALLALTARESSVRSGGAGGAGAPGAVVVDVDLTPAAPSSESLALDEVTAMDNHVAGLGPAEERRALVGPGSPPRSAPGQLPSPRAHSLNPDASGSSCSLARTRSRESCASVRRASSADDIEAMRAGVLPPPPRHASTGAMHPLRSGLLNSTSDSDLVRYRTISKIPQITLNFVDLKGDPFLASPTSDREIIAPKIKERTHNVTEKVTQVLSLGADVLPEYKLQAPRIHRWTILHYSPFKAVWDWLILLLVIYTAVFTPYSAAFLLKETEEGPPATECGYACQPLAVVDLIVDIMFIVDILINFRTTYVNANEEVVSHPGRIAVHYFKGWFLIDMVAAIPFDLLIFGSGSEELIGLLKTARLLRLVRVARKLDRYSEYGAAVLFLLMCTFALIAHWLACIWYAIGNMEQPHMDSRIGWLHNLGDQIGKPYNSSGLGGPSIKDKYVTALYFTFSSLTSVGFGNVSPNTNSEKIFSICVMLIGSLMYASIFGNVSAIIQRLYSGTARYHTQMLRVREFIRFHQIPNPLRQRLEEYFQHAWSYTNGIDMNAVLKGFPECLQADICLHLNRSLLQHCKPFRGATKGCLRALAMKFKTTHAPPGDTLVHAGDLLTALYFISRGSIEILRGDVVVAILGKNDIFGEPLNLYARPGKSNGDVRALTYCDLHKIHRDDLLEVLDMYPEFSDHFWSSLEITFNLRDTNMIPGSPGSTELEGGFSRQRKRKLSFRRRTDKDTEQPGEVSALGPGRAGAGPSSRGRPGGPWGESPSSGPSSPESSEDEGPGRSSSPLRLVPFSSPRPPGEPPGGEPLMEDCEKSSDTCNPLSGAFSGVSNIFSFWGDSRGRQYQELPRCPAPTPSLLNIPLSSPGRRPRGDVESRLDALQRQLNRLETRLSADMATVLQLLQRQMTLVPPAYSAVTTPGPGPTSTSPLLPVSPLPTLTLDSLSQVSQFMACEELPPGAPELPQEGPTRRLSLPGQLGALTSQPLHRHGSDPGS

HaCaT = assay: Antiproliferative activity against human HaCaT cells assessed as inhibition of cell growth incubated for 72 hrs by SRB assay; type: cell-based

Row | Structure (SMILES) | pIC50 [1] | pIC50 (786-0) | pIC50 (HGC-27) | pIC50 (KHOS/NP) | inhibition at 3 µM (hERG (KCNH2)) | pIC50 (HaCaT)
1 | Cn1nccc1-c1ccc(C(=O)N[C@@H]2CNCC[C@H]2c2ccc(F)c(F)c2)cc1 |  |  |  |  |  | 5.26
2 | Cn1nccc1-c1ccc(C(=O)N[C@@H]2CNCC[C@H]2c2ccc(F)c(F)c2)cc1F | 8.57 | 6.02 | 6.74 | 5.13 | 10.7% | 
3 | Cn1ncc(Cl)c1-c1cc(F)c(C(=O)N[C@@H]2CNCC[C@H]2c2ccc(F)c(F)c2)c(Cl)c1 | 6.85 | 5.50 | 5.51 | 5.44 |  | 
4 | Cn1nccc1-c1ccc(C(=O)N[C@@H]2CNCC[C@H]2c2cc(F)cc(F)c2)cc1F | 8.74 | 6.00 | 6.82 | 5.14 | 26.4% | 
5 | Cn1ncc(Br)c1-c1cc(F)c(C(=O)N[C@@H]2CNCC[C@H]2c2ccc(F)c(F)c2)c(Cl)c1 | 6.86 | 5.49 | 5.48 | 5.44 |  | 
6 | Cn1ncc(Br)c1-c1cc(F)c(C(=O)N[C@@H]2CNCC[C@H]2c2ccc(F)c(F)c2)cc1F | 7.18 | 5.72 | 5.75 | 5.51 |  | 

More lines, main results first:

Row | pIC50 [1] | pIC50 (786-0) | Structure (SMILES) | pIC50 (HGC-27) | pIC50 (KHOS/NP) | inhibition at 3 µM (hERG (KCNH2)) | pIC50 (HaCaT)
7 | 7.33 | 5.66 | Cn1nccc1-c1cc(F)c(C(=O)N[C@@H]2CNCC[C@H]2c2ccc(F)c(F)c2)c(Cl)c1 | 5.77 | 5.41 |  | 
8 | 8.34 | 5.65 | Cn1nccc1-c1ccc(C(=O)N[C@@H]2CNCC[C@H]2c2cc(F)cc(F)c2)c(F)c1 | 6.29 | 4.77 | 6.4% | 
9 | 6.75 | 5.28 | CCn1nccc1-c1ccc(C(=O)N[C@@H]2CNCC[C@H]2c2ccc(F)c(F)c2)c(F)c1 | 5.45 | 5.26 |  | 
10 | 7.08 | 5.15 | O=C(N[C@@H]1CNCC[C@H]1c1ccc(F)c(F)c1)c1ccc(-c2ccn[nH]2)cc1F | 5.36 | 4.97 |  | 
